These results are taken from ChEMBL document CHEMBL1134929, “Synthesis and biological activity of potent heterocyclic thiol-based inhibitors of endothelin-converting enzyme-1” (Bioorg Med Chem Lett, 2002).

Experiment [1] deals with T1, Endothelin-converting enzyme 1 (Homo sapiens, UniProt P42892).
T1 sequence (P42892 whole entry): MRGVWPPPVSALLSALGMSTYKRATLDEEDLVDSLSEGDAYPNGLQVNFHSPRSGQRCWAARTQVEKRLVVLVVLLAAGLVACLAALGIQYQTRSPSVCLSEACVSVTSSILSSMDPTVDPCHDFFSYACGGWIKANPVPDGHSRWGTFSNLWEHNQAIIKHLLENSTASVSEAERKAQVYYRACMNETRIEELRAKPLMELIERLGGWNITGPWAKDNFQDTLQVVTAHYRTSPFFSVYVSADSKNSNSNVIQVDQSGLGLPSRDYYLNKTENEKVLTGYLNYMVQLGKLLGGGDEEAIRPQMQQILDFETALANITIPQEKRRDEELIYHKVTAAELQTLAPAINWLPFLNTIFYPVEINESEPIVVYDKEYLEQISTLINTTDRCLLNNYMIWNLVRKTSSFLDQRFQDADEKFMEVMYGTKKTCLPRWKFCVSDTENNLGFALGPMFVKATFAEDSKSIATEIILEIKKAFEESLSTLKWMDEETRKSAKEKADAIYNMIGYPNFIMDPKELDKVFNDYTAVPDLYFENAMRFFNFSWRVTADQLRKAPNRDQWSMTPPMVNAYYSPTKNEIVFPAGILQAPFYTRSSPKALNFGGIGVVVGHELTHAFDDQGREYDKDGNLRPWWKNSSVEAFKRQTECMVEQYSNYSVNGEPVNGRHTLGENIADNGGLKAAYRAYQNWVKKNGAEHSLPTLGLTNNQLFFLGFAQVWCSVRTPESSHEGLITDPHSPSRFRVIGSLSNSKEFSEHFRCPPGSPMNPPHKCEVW
Put plainly: In vitro inhibition of Endothelin-converting enzyme 1.

Experiment [2] deals with Rattus norvegicus. In words: Compound was evaluated for its ability to inhibit the Endothelin 1 induced pressor response in rats upon oral administration of 3-30 mg/kg at 2 hr post dosing. The class given is functional.
Experiment [3] deals with Rattus norvegicus. Put plainly: Compound was evaluated for its ability to inhibit the Endothelin 1 induced pressor response in anesthetized rats upon oral administration of 3 mg/kg at 8 hr post dosing. The class given is functional.
Experiment [4] has as its system Rattus norvegicus. In words: Compound was evaluated for its ability to inhibit the Endothelin 1 induced pressor response in anesthetized rats iupon oral administration of 3 mg/kg at 4 hr post dosing. The class given is functional.
The subject of experiment [5] is Rattus norvegicus. In words: Compound was evaluated for its ability to inhibit the Endothelin 1 induced pressor response in anesthetized rats upon oral administration of 3 mg/kg at 0.5 hr post dosing. The class given is functional.
Experiment [6] relates to Rattus norvegicus. Put plainly: Compound was evaluated for its ability to inhibit the Endothelin 1 induced pressor response in anesthetized rats upon oral administration of 3 mg/kg at 2 hr post dosing. The class given is functional.
The subject of experiment [7] is Rattus norvegicus. Put plainly: Compound was evaluated for its ability to inhibit the Endothelin 1 induced pressor response in anesthetized rats intravenous administration of 10 mg/kg. In kind it is functional.
Experiment [8] has as its system Rattus norvegicus. In words: Compound was evaluated for its ability to inhibit Endothelin 1 induced increase in mean arterial pressure (MAP) after 15 min of dosing (20 mg/kg) in rats. The class given is functional, Artery.

Turning to `CC(C)[C@H](S)C(=O)NC1(C(=O)NC(Cc2ccc(-c3cccc(N)c3)nc2)C(=O)O)CCCC1` (stereo partly specified), the IC50 in experiment [1] is 64 nM.
`COC(=O)[C@H](Cc1ccc(-c2cccs2)nc1)NC(=O)C1(NC(=O)[C@H](CC(C)C)SC(C)=O)CCCC1` registered an Inhibition in experiment [2] of 65%. The inhibition in vivo at 3 mg/kg amounted to 34% in experiment [3], 70% in experiment [4], 90% in experiment [5] and 82% in experiment [6].
Molecule `CC(C)C[C@H](S)C(=O)NC1(C(=O)N[C@@H](Cc2ccc(-c3cccs3)nc2)C(=O)O)CCCC1` yielded an IC50 in experiment [1] of 9.5 nM. Further, in experiment [7], testing at 10 mg/kg gave an inhibition in vivo of 61%. Further, the “Increase in MAP” value in experiment [8] turned out to be 77%.
As for `CC(C)[C@H](S)C(=O)NC1(C(=O)NC(Cc2ccc(-c3ccoc3)nc2)C(=O)O)CCCC1` (stereo partly specified), half-maximal inhibition in experiment [1] (IC50) required 39 nM.
Take `CC(C)[C@H](S)C(=O)NC1(C(=O)N[C@@H](Cc2ccc(-c3ccccc3)cc2)C(=O)O)CCCC1`: the inhibition in vivo at 10 mg/kg in experiment [7] was determined as 40%.

One may read the IC50 as the point on the concentration scale where inhibition reaches its midpoint. Low values mean greater potency in that assay, high ones weaker potency in that assay. In general, Inhibition refers to the percentage by which the read-out fell short of the control. As usually defined, the inhibition in vivo is how much of the control response was suppressed. Low values mean little suppression, high ones strong suppression.
